Key:
Assay in all cases: Other kinases, single-concentration inhibition (Table 3)
Format in all cases: biochemical
ZAP-70(h) = molecular target: T1, ZAP-70(h) (Homo sapiens, UniProt P43403)
T1 construct: purchased Caliper Life Sciences
T1 sequence (P43403 1-619): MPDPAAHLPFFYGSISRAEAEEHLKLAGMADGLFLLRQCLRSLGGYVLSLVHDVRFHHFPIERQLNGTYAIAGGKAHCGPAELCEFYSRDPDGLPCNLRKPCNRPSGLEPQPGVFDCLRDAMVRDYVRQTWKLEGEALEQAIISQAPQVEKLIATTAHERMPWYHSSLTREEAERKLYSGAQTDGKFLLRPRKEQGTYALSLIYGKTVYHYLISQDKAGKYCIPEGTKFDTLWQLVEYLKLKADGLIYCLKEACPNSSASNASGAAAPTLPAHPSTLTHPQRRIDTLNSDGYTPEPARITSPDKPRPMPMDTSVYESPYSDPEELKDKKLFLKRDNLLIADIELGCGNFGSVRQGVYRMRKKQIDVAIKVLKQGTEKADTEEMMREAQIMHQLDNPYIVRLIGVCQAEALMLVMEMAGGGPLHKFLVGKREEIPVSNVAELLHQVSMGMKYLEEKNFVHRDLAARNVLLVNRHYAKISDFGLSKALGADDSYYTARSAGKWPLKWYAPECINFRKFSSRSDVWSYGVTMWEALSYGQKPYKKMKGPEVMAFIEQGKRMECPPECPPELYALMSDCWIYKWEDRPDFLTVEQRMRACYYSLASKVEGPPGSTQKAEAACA
Description: (§1) The Aurora and other kinase assays described here were performed on two Caliper Life Sciences systems, the LC3000 and the Desktop Profiler. These provide data on enzyme activity via measurement of the relative amounts of phosphorylated or unphosphorylated fluorescently labelled substrate peptide at the end of an enzymatic reaction. These different states of peptide are resolved by applying a potential difference across the sample. The presence of a charged phosphate group on the product (as opposed to the substrate) causes a different peptide mobility between the two peptides. This is visualized by excitation of a fluorescent label on the substrate and product peptides and represented as peaks within the analysis software.
(§2) The Desktop Profiler utilizes the same principal as the LC 3000 for calculating percentage conversion of a substrate to product. Caliper Life Sciences provided proprietary flash frozen pre-made 384 well plates containing selected kinases. Each column in the 384 well plate contained a particular selected kinase. A second plate, the ‘substrate plate’ contained a mix of fluorescently labeled peptide substrate and ATP. These were arranged in columns so that transfer for substrate plate to enzyme plate provided the correct enzyme with the correct substrate/ATP concentration.
(§3) Compounds were added to a thawed enzyme plate in the desired format, in single concentrations. Reactions were initiated by transfer of the ubstrate/ATP mix from the substrate plate. The enzyme plate was incubated for 90 mins at 25 °C. The reaction was stopped by addition of […] of Stop Buffer (100 mM HEPES pH 7.5, 0.015% Brij-35, 10 mM EDTA (Sigma, E7889)).
(§4) Plates were read in a manner identical to that of the LC3000, and the ratio between substrate and product peaks provided the activity of the enzyme in that well. This was best represented by a plate heat map which colors each well by percent inhibition as compared to positive and negative controls (no inhibitors and no ATP respectively).

Flt3(D835Y)(h) = molecular target: T2, Flt3(D835Y)(h) (Homo sapiens, UniProt P36888, D835Y)
T2 construct: purchased Caliper Life Sciences
T2 sequence (P36888 27-993 D835Y): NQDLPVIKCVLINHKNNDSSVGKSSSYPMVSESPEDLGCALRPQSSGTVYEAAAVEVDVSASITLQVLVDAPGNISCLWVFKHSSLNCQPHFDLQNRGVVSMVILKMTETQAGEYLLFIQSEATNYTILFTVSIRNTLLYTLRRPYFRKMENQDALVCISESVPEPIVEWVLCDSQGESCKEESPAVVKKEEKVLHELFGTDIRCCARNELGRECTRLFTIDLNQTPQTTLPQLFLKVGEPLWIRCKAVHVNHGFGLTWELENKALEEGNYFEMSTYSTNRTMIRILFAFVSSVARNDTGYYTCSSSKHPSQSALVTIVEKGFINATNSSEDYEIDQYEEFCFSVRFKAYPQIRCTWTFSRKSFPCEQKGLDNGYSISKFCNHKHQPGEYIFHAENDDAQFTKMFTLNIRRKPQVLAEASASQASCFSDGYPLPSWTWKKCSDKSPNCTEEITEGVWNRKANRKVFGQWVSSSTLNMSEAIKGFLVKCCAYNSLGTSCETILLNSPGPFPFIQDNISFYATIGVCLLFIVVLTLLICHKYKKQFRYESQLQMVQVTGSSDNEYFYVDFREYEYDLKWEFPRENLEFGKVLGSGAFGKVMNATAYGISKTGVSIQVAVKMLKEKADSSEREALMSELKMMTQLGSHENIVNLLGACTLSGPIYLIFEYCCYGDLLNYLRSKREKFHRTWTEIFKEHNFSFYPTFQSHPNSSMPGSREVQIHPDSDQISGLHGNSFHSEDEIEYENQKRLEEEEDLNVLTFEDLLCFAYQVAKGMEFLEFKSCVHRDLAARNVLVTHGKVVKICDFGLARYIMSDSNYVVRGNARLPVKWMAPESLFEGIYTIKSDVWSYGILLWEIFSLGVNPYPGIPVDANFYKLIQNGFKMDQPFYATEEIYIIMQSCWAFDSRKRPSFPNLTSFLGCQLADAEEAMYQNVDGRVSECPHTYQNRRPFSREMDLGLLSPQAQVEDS
Description: as §1, §2, §3, §4

PDGFRβ(h) = molecular target: T3, PDGFRβ(h) (Homo sapiens, UniProt P09619)
T3 construct: purchased Caliper Life Sciences
T3 sequence (P09619 33-1106): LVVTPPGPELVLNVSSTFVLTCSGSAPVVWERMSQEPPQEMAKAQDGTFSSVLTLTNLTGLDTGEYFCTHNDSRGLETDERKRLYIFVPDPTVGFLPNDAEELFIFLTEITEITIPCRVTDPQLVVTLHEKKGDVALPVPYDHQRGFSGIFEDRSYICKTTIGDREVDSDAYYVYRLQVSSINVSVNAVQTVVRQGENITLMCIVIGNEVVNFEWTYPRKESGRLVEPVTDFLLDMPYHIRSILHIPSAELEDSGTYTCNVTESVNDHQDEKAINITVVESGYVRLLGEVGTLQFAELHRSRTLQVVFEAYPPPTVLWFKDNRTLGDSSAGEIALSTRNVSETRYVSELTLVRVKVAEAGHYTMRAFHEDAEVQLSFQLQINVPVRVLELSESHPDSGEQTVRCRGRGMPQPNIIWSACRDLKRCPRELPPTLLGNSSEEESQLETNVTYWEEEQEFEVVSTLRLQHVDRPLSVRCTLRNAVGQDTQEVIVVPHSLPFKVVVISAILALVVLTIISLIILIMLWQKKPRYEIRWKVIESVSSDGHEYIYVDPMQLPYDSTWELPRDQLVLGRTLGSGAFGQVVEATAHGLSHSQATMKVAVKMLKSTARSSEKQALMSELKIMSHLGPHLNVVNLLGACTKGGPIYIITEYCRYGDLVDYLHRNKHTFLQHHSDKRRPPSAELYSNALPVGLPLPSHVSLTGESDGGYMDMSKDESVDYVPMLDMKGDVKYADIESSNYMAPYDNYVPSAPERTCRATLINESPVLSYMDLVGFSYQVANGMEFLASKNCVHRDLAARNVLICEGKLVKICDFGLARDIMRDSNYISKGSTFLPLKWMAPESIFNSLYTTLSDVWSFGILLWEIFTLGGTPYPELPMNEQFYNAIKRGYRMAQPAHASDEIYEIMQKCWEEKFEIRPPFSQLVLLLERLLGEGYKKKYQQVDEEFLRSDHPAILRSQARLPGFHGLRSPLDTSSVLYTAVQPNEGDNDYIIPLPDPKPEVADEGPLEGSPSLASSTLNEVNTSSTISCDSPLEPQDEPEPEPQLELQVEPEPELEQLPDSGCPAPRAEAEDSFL
Description: as §1, §2, §3, §4

IRAK4(h) = molecular target: T4, IRAK4(h) (Homo sapiens, UniProt Q9NWZ3)
T4 construct: purchased Caliper Life Sciences
T4 sequence (Q9NWZ3 1-460): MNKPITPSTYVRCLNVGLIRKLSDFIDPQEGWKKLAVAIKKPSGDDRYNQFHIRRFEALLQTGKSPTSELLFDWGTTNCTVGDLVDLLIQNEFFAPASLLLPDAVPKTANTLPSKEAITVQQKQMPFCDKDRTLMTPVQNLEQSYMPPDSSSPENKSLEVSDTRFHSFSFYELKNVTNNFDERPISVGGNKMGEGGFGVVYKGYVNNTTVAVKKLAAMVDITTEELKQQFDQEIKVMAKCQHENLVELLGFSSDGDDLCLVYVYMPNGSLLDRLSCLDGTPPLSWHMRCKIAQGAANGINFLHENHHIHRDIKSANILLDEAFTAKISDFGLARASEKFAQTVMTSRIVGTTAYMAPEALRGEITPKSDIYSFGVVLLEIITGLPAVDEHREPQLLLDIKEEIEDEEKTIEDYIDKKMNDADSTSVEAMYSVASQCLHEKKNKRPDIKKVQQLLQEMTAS
Description: as §1, §2, §3, §4

ROCK-II(h) = molecular target: T5, ROCK-II(h) (Homo sapiens, UniProt O75116)
T5 construct: purchased Caliper Life Sciences
T5 sequence (O75116 whole entry): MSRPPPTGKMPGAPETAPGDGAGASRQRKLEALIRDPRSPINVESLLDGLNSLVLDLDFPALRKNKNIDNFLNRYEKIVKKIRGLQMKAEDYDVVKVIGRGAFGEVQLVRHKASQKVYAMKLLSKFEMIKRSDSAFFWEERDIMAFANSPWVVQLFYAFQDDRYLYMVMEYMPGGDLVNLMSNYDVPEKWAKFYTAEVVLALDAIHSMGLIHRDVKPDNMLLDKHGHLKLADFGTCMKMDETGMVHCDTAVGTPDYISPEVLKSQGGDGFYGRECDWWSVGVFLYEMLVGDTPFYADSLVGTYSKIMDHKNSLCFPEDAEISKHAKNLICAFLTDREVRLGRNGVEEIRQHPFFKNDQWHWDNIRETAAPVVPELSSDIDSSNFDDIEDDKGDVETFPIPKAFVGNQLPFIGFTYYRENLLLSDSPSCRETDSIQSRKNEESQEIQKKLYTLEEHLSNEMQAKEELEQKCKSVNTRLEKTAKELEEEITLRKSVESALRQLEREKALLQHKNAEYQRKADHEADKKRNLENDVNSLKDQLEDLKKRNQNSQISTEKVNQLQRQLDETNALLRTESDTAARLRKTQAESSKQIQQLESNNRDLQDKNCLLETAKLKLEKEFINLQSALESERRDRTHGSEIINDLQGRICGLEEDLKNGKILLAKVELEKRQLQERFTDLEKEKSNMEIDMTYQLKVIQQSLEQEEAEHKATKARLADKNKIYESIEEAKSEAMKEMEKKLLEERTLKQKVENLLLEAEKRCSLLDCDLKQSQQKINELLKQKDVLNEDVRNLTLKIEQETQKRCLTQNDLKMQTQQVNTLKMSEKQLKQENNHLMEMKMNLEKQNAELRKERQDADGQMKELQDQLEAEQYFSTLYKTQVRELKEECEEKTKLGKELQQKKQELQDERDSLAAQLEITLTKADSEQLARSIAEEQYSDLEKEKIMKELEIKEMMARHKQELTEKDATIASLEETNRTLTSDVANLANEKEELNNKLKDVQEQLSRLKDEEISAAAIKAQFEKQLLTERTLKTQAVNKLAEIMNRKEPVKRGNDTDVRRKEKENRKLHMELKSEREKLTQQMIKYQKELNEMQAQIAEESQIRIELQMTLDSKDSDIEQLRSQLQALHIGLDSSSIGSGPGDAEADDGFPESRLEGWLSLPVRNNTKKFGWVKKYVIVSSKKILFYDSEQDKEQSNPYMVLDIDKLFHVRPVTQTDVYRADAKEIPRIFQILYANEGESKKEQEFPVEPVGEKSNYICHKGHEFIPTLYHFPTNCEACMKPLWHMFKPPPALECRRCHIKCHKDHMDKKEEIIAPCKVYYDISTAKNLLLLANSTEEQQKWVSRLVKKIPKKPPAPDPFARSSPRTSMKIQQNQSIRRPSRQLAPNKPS
Description: as §1, §2, §3, §4

cKit(D816V)(h) = molecular target: T6, cKit(D816V)(h) (Homo sapiens, UniProt P10721, D816V)
T6 construct: purchased Caliper Life Sciences
T6 sequence (P10721 26-976 D816V): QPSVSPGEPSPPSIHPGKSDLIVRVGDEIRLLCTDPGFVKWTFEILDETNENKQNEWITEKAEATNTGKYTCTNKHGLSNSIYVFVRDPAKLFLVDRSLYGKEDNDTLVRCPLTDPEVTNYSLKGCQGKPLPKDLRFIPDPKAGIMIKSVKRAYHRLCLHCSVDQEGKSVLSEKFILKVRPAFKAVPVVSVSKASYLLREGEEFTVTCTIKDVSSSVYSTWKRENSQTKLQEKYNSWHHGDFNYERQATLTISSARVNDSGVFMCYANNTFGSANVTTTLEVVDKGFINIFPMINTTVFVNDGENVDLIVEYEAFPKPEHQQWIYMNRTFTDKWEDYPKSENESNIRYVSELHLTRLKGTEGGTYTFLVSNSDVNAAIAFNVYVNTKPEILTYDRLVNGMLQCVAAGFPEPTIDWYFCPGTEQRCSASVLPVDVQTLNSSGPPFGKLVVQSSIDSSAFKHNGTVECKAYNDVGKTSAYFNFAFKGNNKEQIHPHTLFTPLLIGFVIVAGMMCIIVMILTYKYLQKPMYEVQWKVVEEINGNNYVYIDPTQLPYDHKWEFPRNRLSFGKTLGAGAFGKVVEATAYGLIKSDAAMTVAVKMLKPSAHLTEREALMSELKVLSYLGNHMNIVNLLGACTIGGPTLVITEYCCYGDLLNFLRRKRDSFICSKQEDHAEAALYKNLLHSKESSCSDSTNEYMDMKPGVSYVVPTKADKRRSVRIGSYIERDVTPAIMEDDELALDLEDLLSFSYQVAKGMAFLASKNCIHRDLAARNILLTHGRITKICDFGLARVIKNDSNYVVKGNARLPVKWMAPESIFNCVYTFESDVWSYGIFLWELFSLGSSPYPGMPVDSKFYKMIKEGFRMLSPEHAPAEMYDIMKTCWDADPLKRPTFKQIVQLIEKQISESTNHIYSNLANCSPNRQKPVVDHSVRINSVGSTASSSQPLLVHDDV
Description: as §1, §2, §3, §4

Compound | % inhibition ZAP-70(h) (ZAP-70(h); 1 μM) [%] | % inhibition Flt3(D835Y)(h) (Flt3(D835Y)(h); 1 μM) [%] | % kinase activity remaining (PDGFRβ(h); 1 μM) [%] | % inhibition IRAK4(h) (IRAK4(h); 1 μM) [%] | % inhibition ROCK-II(h) (ROCK-II(h); 1 μM) [%] | % inhibition cKit(D816V)(h) (cKit(D816V)(h); 1 μM) [%] | % inhibition ZAP-70(h) (ZAP-70(h); 10 μM) [%] | % inhibition Flt3(D835Y)(h) (Flt3(D835Y)(h); 10 μM) [%] | % kinase activity remaining (PDGFRβ(h); 10 μM) [%] | % inhibition IRAK4(h) (IRAK4(h); 10 μM) [%] | % inhibition ROCK-II(h) (ROCK-II(h); 10 μM) [%] | % inhibition cKit(D816V)(h) (cKit(D816V)(h); 10 μM) [%]
C=C[C@@H]1C[C@@H]2/C=C/COc3cccc(c3)Nc3ncc(F)c(n3)N[C@H]2[C@H]1C(N)=O (single isomer, unassigned) [Example 3] | 109 | 77 | 110 | 82 | 80 | 77 | – | – | – | – | – | –
CC[C@@H]1C[C@@H]2CCCOc3cccc(c3)Nc3ncc(F)c(n3)N[C@H]2[C@H]1C(N)=O (single isomer, unassigned) [Example 5] | 122 | 63 | 117 | 81 | 105 | 103 | – | – | – | – | – | –
CC[C@@H]1C[C@@H]2/C=C\COc3cccc(c3)Nc3ncc(F)c(n3)N[C@H]2[C@H]1C(N)=O (single isomer, unassigned) [Example 6] | 125 | 33 | 107 | 52 | 97 | 96 | – | – | – | – | – | –
NC(=O)[C@H]1[C@H]2C[C@H]3[C@H]1Nc1nc(ncc1F)Nc1cccc(c1)CSS[C@@H]3C2 [Example 10] | 118 | 7 | 149 | 3 | 90 | 96 | – | – | – | – | – | –
NC(=O)[C@H]1[C@H]2C[C@H]3[C@H]1Nc1nc(ncc1F)Nc1cccc(c1)C(=O)CS[C@@H]3C2 [Example 11] | 124 | 110 | 93 | 90 | 102 | 102 | – | – | – | – | – | –
NC(=O)[C@H]1[C@H]2C[C@H]3[C@H]1Nc1nc(ncc1F)Nc1cccc(c1)OCCS[C@@H]3C2 [Example 20] | 122 | 8 | 110 | 12 | 99 | 112 | – | – | – | – | – | –
O=C(O)[C@H]1[C@H]2C[C@H]3[C@H]1Nc1nc(ncc1F)Nc1cccc(c1)OCCS[C@@H]3C2 [Example 21] | – | – | – | – | – | – | 94 | 2 | 104 | 31 | 94 | 104
CN1CCN(c2ccc3cc2OCCS[C@@H]2C[C@@H]4C[C@H]2[C@@H](Nc2nc(ncc2F)N3)[C@H]4C(N)=O)CC1 [Example 22] | – | 3 | 112 | 52 | 92 | 112 | – | – | – | – | – | –
CN1CCN(c2ccc3cc2NC(=O)CS[C@@H]2C[C@@H]4C[C@H]2[C@@H](Nc2nc(ncc2F)N3)[C@H]4C(N)=O)CC1 [Example 24] | 112 | 3 | 95 | 19 | 120 | 97 | – | – | – | – | – | –
N#Cc1ccc2cc1NC(=O)CS[C@@H]1C[C@@H]3C[C@H]1[C@@H](Nc1nc(ncc1F)N2)[C@H]3C(N)=O [Example 26] | 112 | 57 | 58 | 43 | 94 | 112 | – | – | – | – | – | –
NC(=O)[C@H]1[C@H]2C[C@H]3[C@H]1Nc1nc(ncc1F)Nc1cccc(c1)NC(=O)CS[C@@H]3C2 [Example 27] | 125 | 12 | 115 | 12 | 110 | 95 | – | – | – | – | – | –

Source: patent US8815872B2, “Macrocyclics pyrimidines as aurora kinase inhibitors” (Merck Patent GmbH, priority 2008, dated 2014)
